Data: patent US20230183293A1, “METHODS OF TREATING OR PREVENTING CORONAVIRUS INFECTION” (priority 2021, published 2023)
Where two headings read alike, the source gives them in different places. Marks after values point to notes of the source that are not given here.

Experiments:
Calu-3 cells [1] = details: with cells, glass
[2] = VCS concentration after incubation in glass without cells, LC-MS/MS; format: physicochemical; details: for Conc: 3.2 μM supplied solution, without cells, glass
SARS-CoV-2 [3] = test: microbe, parasite or virus in culture; format: cell-based
[4] = format: physicochemical
calcineurin = details: in vitro and in vivo; Kuglstatter et al.; cited from earlier work
SARS-CoV-2 [5] = format: cell-based
in vitro = details: African green monkey
SARS-CoV-2 [6] = test: microbe, parasite or virus in culture; format: cell-based; remark: listed apart in the source
SARS-CoV-2 [7] = test: CPE reduction assay in Vero E6 cells with pharmaceutical formulations (Example 8); format: cell-based
[8] = Phase 2b study in de novo kidney transplant recipients (Example 3); format: in vivo, human; details: for NODAT (new onset of diabetes after transplant) incidence: 6 month
Method: De novo kidney transplant recipients were enrolled into a 6 month, Phase 2b, multi-center, randomized, open-label study. […] In addition, all subjects received induction immunosuppression with intravenous daclizumab or basiliximab (dosed per product labeling) and received concomitant treatment during the study with MMF and corticosteroids. […] Adverse reactions were recorded and renal graft rejection was assessed based on Banff classification. At 3-month and 6-month time points, adverse reactions were analyzed. Graft survival and patient survival were also recorded at the 6-month time point.

SARS-CoV-2 [9] = test: CPE reduction assay in Vero E6 cells with pharmaceutical formulations dissolved in DMSO (Example 6); format: cell-based; details: Severe acute respiratory syndrome coronavirus 2, Vero C1008, 72 h; read-out: EC50, inhibition of virus-induced cell death
Vero E6 cells [10] = details: FIG. 1B
Calu-3 cells [11] = details: plastic, Calu-3, FIG. 6D
SARS-CoV-2 [12] = details: prednisone + voclosporin, expected
norovirus = details: compared with CsA; cited from earlier work
Vero E6 cells [13] = test: Cytotoxicity in mock-infected Vero E6 cells, pure powder stocks (Example 11); format: cell-based, African green monkey; details: solution from pure powder
Method: CPE reductions assays in Vero E6 cells were performed, generally as described above, except that pre-incubation of cells with the tested compounds lasted 30 minutes. Plates were incubated for three days at 37° C. and cell viability was determined using a colorimetric assay, measuring the absorption at 495 nm. The EC50 and CC50 of each compound was determined and analysis of the resultant data using non-linear regression. For each compound, at least two independent experiments (each in quadruplicate) were completed.
CPE reduction assays were performed as described above, using high purity powders of immunosuppressive drugs solubilized in DMSO. Test stock solutions were prepared from pure powders of each compound. In the case of Neoral (CsA microemulsion), CsA powder, the most commonly used CsA derivative in KTR treatment, was evaluated.

[14] = Binding to plastic labware (coated or uncoated 96-well plates), remaining concentration by LC-MS/MS (Example 12); format: physicochemical; details: for Conc: 2 μM VCS
Method: Plastic labware was coated with three different coating agents: 100 mg/ml bovine serum albumin in PBS (BSA; Sigma), 1% polyethylene glycol 3350 in MilliQ water (PEG-3350; Sigma) and 0.2% polysorbate 40 in MilliQ water (Tween40; Fluka). In addition, the plastic materials with VCS by treating them with a 500 mM VCS solution in DMSO (Sigma). Labware, including all tubes, tips and culture plastics, was filled with blocking solution and incubated for 2 h at room temperature with rocking to homogenously coat the surfaces. After rinsing twice with MilliQ water, the items were left to dry at room temperature until further use in experiments. Solutions of 0.2 and 2 μM of VCS were prepared in EMEM-2% FCS and 100 μl of each VCS solution was incubated in coated 96-well plates. After a 2 h incubation at 37° C. the remaining VCS concentration was measured by validated LC-MS/MS.

SARS-CoV-2 [15] = test: SARS-CoV-2 viral load reduction assay in Vero E6 cells, plaque assay and NSP4 staining (Example 2); format: cell-based

In the case of C=C/C=C/C[C@@H](C)[C@@H](O)[C@H]1C(=O)N[C@@H](CC)C(=O)N(C)CC(=O)N(C)[C@@H](CC(C)C)C(=O)N[C@@H](C(C)C)C(=O)N(C)[C@@H](CC(C)C)C(=O)N[C@@H](C)C(=O)N[C@H](C)C(=O)N(C)[C@@H](CC(C)C)C(=O)N(C)[C@@H](CC(C)C)C(=O)N(C)[C@@H](C(C)C)C(=O)N1C [voclosporin], the Conc (Calu-3 cells [1]; 0.2 μM supplied solution, 0 h) is reported as 0.33 µM, the Conc (Calu-3 cells [1]; 0.2 μM supplied solution, 24 h, below detection limit) is reported as <0.07* μM and the Conc (Calu-3 cells [1]; 0.4 μM supplied solution, 0 h) is reported as 0.45 µM. It also gave a Conc (Calu-3 cells [1]; 0.4 μM supplied solution, 24 h) of 0.10 µM, a Conc (Calu-3 cells [1]; 0.8 μM supplied solution, 0 h) of 0.99 µM and a Conc (Calu-3 cells [1]; 0.8 μM supplied solution, 24 h) of 0.15 µM. It also gave a Conc (Calu-3 cells [1]; 1.6 μM supplied solution, 0 h) of 1.77 µM, a Conc (Calu-3 cells [1]; 1.6 μM supplied solution, 24 h) of 0.35 µM and a Conc (Calu-3 cells [1]; 3.2 μM supplied solution, 0 h) of 2.91 µM. The Conc (Calu-3 cells [1]; 3.2 μM supplied solution, 24 h) was 0.82 µM, the Conc ([2]; 0 h) was 2910 nM and the Conc ([2]; 24 h) was 2790 nM. For the same compound, the “loss of compound from solution” value ([2]; 24 h at 37° C. in glass without cells) was “No significant loss”, the “protection of SARS-CoV-2 infected cells compared with the pharmaceutical formulation” value (SARS-CoV-2 [3]) was “did not confer the same level of protection” and the “detected concentration in the medium of infected cells” value ([4]; after 24 h treatment with 25 μM VCS, standard plastic labware) was 0.68 µM. For the same compound, the “VCS lost due to plastic binding” value ([4]; considering a […]% reduction due to cellular binding or uptake) was 90%, the “bioavailable amount of what was added initially when using plastic” value ([4]; plastic labware) was ~10% and the “increase of binding affinity to calcineurin compared to CsA” value (calcineurin) was “up to five-fold”. For the same compound, the “reduction in SARS-CoV-2 infectious progeny titers” value (SARS-CoV-2 [5]) was “more than 1.5 log”, the CC50 (in vitro) was ~4000 nM and the EC50 (SARS-CoV-2 [6]; Severe acute respiratory syndrome coronavirus 2, Vero C1008, FIG. 1C, Vero E6 CPE reduction, read-out: EC50 inhibition of SARS-CoV-2) was ~400 nM. For the same compound, the “concentration preserving viability of infected cells at level of mock-infected/uninfected cells” value (SARS-CoV-2 [6]; Vero E6, 3 days) was 0.8 µM, the “times lower EC50 compared to the other compounds tested” value (SARS-CoV-2 [7]) was 18-45 times and the EC50 (SARS-CoV-2 [7]; Severe acute respiratory syndrome coronavirus 2, Vero C1008, 72 h, Vero E6, 3 days, read-out: EC50, inhibition of virus-induced cell death) was 220 ± 10 nM. For the same compound, the “NODAT (new onset of diabetes after transplant) incidence” value (from here on “NODAT”) ([8]; high dose) was 17.7%, the “NODAT” value ([8]; high dose, listed as Voclosporin) was 17.7% and the “Central BPAR (biopsy proven acute rejection), patients (incidence)” value (“Central BPAR” below) ([8]; high dose, N = 87, 6 month post-transplantation) was 2 (2.3%). The blood trough level ([8]; high-dose 0.8 mg/kg BID, months 0-3) was 60 to 85 ng/mL, the blood trough level ([8]; high-dose 0.8 mg/kg BID, months 3-6) was 31 to 40 ng/mL and the “NODAT” value ([8]; low dose) was 1.6%. For the same compound, the “NODAT” value ([8]; low dose, listed as Voclosporin) was 1.6%, the “Central BPAR” value ([8]; low dose, N = 84, 6 month post-transplantation) was 9 (10.7%) and the blood trough level ([8]; low-dose 0.4 mg/kg BID, months 0-3) was 20 to 30 ng/mL. The blood trough level ([8]; low-dose 0.4 mg/kg BID, months 3-6) was 11 to 20 ng/mL, the “NODAT” value ([8]; mid dose) was 5.7% and the “NODAT” value ([8]; mid dose, listed as Voclosporin) was 5.7%. The “Central BPAR” value ([8]; mid dose, N = 77, 6 month post-transplantation) was 7 (9.1%), the blood trough level ([8]; mid-dose 0.6 mg/kg BID, months 0-3) was 35 to 50 ng/mL and the EC50 (SARS-CoV-2 [9]) was 270 nM. For the same compound, the “concentrations without toxicity to uninfected cells” value (Vero E6 cells [10]; batch 4) was “up to 10 μM”, the “concentrations without toxicity to uninfected cells” value (Vero E6 cells [10]; unit not given) was “under 2” and the cytotoxicity (Calu-3 cells [11]) was “did not”. For the same compound, the “SARS-CoV-2 viral load and CPEs compared to the tacrolimus group” value (SARS-CoV-2 [12]; 6 capsules of 7.9 mg BID) was “more efficacious reduction in viral load, and less severe CPEs”, the “graft rejections, diabetes and adverse effects compared to the tacrolimus group” value (SARS-CoV-2 [12]) was “comparable or lower incidences of graft rejections, diabetes and adverse effects” and the “inhibition of norovirus replication” value (norovirus) was “inhibit norovirus replication in a CypA-dependent manner and more effectively than CsA”. For the same compound, the “cytotoxicity in mock-infected cells compared with the pharmaceutical formulation” value (Vero E6 cells [13]) was “less cytotoxicity”, the Conc ([14]; 100 mg/ml BSA solution coating, 0 h) was 550 ± 210 nM and the Conc ([14]; 100 mg/ml BSA solution coating, 2 h) was 100 ± 40 nM. It also gave a Conc ([14]; 0.2% Tween-40 solution coating, 0 h) of 560 ± 350 nM, a Conc ([14]; 0.2% Tween-40 solution coating, 2 h) of 90 ± 40 nM and a Conc ([14]; 1% PEG-3350 solution coating, 0 h) of 510 ± 160 nM. The Conc ([14]; 1% PEG-3350 solution coating, 2 h) was 90 ± 20 nM, the Conc ([14]; Uncoated plastic, 0 h) was 560 ± 250 nM and the Conc ([14]; Uncoated plastic, 2 h) was 130 ± 70 nM. For the same compound, the “original stock concentration recovered” value ([14]; t=0) was ~27%, the “concentration above which viral titer was reduced to the limit of detection” value (SARS-CoV-2 [15]; Vero E6, FIG. 2A, unit not given) was “above 1.00” and the “amount of SARS-CoV-2 infected cells, fluorescent staining of viral NSP4” value (SARS-CoV-2 [15]; Vero E6, FIG. 2C) was “reduced the amount of SARS-CoV-2 infected cells in a dose-dependent manner”.
